# Test system: HT-29 cells
# Assay: HT-29 necroptosis cell viability assay (TNF-α/SMAC mimetic/zVAD-FMK, CellTiter-Glo)
# Type: cell-based
# Conditions: Homo sapiens, HT-29, 20 h, read-out: Activity
# In short: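 HT-29 cells (~5,000/well, overnight) in FBS-free McCoy's 5A with TNF-α 10 ng/ml, SMAC mimetic 6 μM and zVAD-FMK 10 μM plus 10-point 1:3 compound titration, 20 h at 37°C. ATP measured by CellTiter-Glo luminescence; IC50 as geometric mean of duplicates.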
row,Compound,IC50
1,"COC(=O)c1ncc(Oc2ccc(-n3ncn(Cc4c(F)cccc4F)c3=O)cc2F)s1 [Example 105, methyl 5-(4-(4-(2,6-difluorobenzyl)-5-oxo-4,5-dihydro-1H-1,2,4-triazol-1-yl)-2-fluorophenoxy)thiazole-2-carboxylate]",100 to 1000 nM

# Same assay, conditions: Homo sapiens, HT-29, HT-29 cells, necroptosis induced by TNF-α/SMAC mimetic/zVAD-FMK, CellTiter-Glo; read-out: Activity (IC50 class)
row,Compound,IC50
1,"Cc1nc(C(N)=O)sc1Oc1ncc(-n2nc3n(c2=O)[C@@H](c2ccccc2)CC3)cc1Cl (single isomer, unassigned) [Example 641]",1000 to 10000 nM
2,"O=c1n(-c2ccc(N3CCOc4ccccc43)cc2)nc(Cl)n1Cc1ccccc1 [Example 681, 4-benzyl-5-chloro-2-(4-(2,3-dihydro-4H-benzo[b][1,4]oxazin-4-yl)phenyl)-2,4-dihydro-3H-1,2,4-triazol-3-one]",100 to 1000 nM

# Same assay, conditions: Homo sapiens, HT-29, HT-29 necroptosis cell viability assay; class symbols for IC50; read-out: Activity
row,Compound,IC50
1,"Cc1nc(N2CC(C)(C#N)C2)sc1C(O)c1ccc(-n2ncn(Cc3c(F)cccc3F)c2=O)cc1 (stereo not shown) [Example 511, 1-(5-((4-(4-(2,6-difluorobenzyl)-5-oxo-4,5-dihydro-1H-1,2,4-triazol-1-yl)phenyl)(hydroxy)methyl)-4-methylthiazol-2-yl)-3-methylazetidine-3-carbonitrile]",1000 to 10000 nM
2,"COC1(C)CN(c2nccc(Oc3ccc(-n4ncn(Cc5c(F)cccc5Cl)c4=O)cc3)c2F)C1 [Example 491, 4-(2-chloro-6-fluorobenzyl)-2-(4-((3-fluoro-2-(3-methoxy-3-methylazetidin-1-yl)pyridin-4-yl)oxy)phenyl)-2,4-dihydro-3H-1,2,4-triazol-3-one]",< 100 nM
3,"Cc1nc(C(F)(F)C(N)=O)sc1Oc1ccc(-n2ncn(Cc3c(F)cccc3F)c2=O)cc1F [Example 116, 2-(5-(4-(4-(2,6-difluorobenzyl)-5-oxo-4,5-dihydro-1H-1,2,4-triazol-1-yl)-2-fluorophenoxy)-4-methylthiazol-2-yl)-2,2-difluoroacetamide]",< 100 nM
4,"O=c1n(Cc2c(F)cccc2F)cnn1-c1cnc(Oc2ccccc2)s1 [Example 165, 4-(2,6-difluorobenzyl)-2-(2-phenoxythiazol-5-yl)-2,4-dihydro-3H-1,2,4-triazol-3-one]",100 to 1000 nM
5,"Cc1nc(NC(=O)OC(C)(C)C)sc1Sc1ccc(-n2ncn(Cc3ccccc3)c2=O)cc1 [Example 612, tert-butyl (5-((4-(4-benzyl-5-oxo-4,5-dihydro-1H-1,2,4-triazol-1-yl)phenyl)thio)-4-methylthiazol-2-yl)carbamate]",< 100 nM
6,"COc1cc(S(=O)(=O)c2ccc(-n3nc4n(c3=O)C(c3ccccc3)CC4)cc2)ccn1 (stereo not shown) [Example 617, 2-(4-((2-methoxypyridin-4-yl)sulfonyl)phenyl)-5-phenyl-2,5,6,7-tetrahydro-3H-pyrrolo[2,1-c][1,2,4]triazol-3-one]",< 100 nM
7,"Cc1nc(N)sc1S(=O)(=O)c1ccc(-n2ncn(Cc3ccccc3)c2=O)cc1 [Example 627, 2-(4-((2-amino-4-methylthiazol-5-yl)sulfonyl)phenyl)-4-benzyl-2,4-dihydro-3H-1,2,4-triazol-3-one]",100 to 1000 nM
8,"O=c1c(Br)cccn1Cc1ccc(-n2ncn(Cc3c(F)cccc3F)c2=O)cc1 [Example 211, 3-bromo-1-(4-(4-(2,6-difluorobenzyl)-5-oxo-4,5-dihydro-1H-1,2,4-triazol-1-yl)benzyl)pyridin-2(1H)-one]",100 to 1000 nM
9,"Cc1nc(C(=O)N2CC(N)C2)sc1Oc1ccc(-n2ncn(Cc3ccccc3F)c2=O)cc1F [Example 600, 2-(4-((2-(3-aminoazetidine-1-carbonyl)-4-methylthiazol-5-yl)oxy)-3-fluorophenyl)-4-(2-fluorobenzyl)-2,4-dihydro-3H-1,2,4-triazol-3-one]",< 100 nM
10,"Cc1nc(C#N)sc1Oc1ccc(-n2ncn(Cc3ccccc3C#N)c2=O)cc1F [Example 570, 5-(4-(4-(2-cyanobenzyl)-5-oxo-4,5-dihydro-1H-1,2,4-triazol-1-yl)-2-fluorophenoxy)-4-methylthiazole-2-carbonitrile]",100 to 1000 nM
11,"Cc1nc(C(C)(C)O)sc1Oc1ccc(-n2ncn(Cc3ncccc3C#N)c2=O)cc1F [Example 129, 2-((1-(3-fluoro-4-((2-(2-hydroxypropan-2-yl)-4-methylthiazol-5-yl)oxy)phenyl)-5-oxo-1,5-dihydro-4H-1,2,4-triazol-4-yl)methyl)nicotinonitrile]",100 to 1000 nM

# Same assay, conditions: Homo sapiens, HT-29, HT-29 necroptosis cell viability, IC50 class symbols; read-out: Activity
row,Compound,IC50
1,"C[C@H]1[C@H](N)CN1c1cc(Oc2ccc(-n3ncn(Cc4c(F)cccc4F)c3=O)cc2F)c(F)cn1 [Example 377, 2-(4-((2-((2S,3R)-3-amino-2-methylazetidin-1-yl)-5-fluoropyridin-4-yl)oxy)-3-fluorophenyl)-4-(2,6-difluorobenzyl)-2,4-dihydro-3H-1,2,4-triazol-3-one]",< 100 nM
2,"Cc1nc(C(C)(C)O)sc1Oc1ccc(-n2nc3n(c2=O)C(c2ccccc2)CC3)cc1F (stereo not shown) [Example 463, 2-(3-fluoro-4-((2-(2-hydroxypropan-2-yl)-4-methylthiazol-5-yl)oxy)phenyl)-5-phenyl-2,5,6,7-tetrahydro-3H-pyrrolo[2,1-c][1,2,4]triazol-3-one]",< 100 nM
3,"CCOC1CN(c2cc(Oc3ccc(-n4nc5n(c4=O)C(c4ccccc4)CC5)cc3)ccn2)C1 (stereo not shown) [Example 301, 2-[4-[[2-(3-ethoxyazetidin-1-yl)-4-pyridyl]oxy]phenyl]-5-phenyl-6,7-dihydro-5H-pyrrolo[2,1-c][1,2,4]triazol-3-one]",< 100 nM
4,"O=c1n(Cc2c(F)cccc2F)cnn1-c1ccc(Oc2c(N3CC4(CCOCC4)C3)ccnc2Cl)cc1 [Example 307, 2-(4-((2-chloro-4-(7-oxa-2-azaspiro[3.5]nonan-2-yl)pyridin-3-yl)oxy)phenyl)-4-(2,6-difluorobenzyl)-2,4-dihydro-3H-1,2,4-triazol-3-one]",100 to 1000 nM
5,"CNC1(C)CN(c2cc(Oc3ccc(-n4ncn(Cc5c(F)cccc5F)c4=O)cc3F)c(Cl)cn2)C1 [Example 414, 2-(4-((5-chloro-2-(3-methyl-3-(methylamino)azetidin-1-yl)pyridin-4-yl)oxy)-3-fluorophenyl)-4-(2,6-difluorobenzyl)-2,4-dihydro-3H-1,2,4-triazol-3-one]",> 10000 nM
6,"Cc1nc(C(O)C(F)F)sc1Oc1ccc(-n2ncn(Cc3c(F)cccc3F)c2=O)cc1F (stereo not shown) [Example 446, 2-(4-((2-(2,2-difluoro-1-hydroxyethyl)-4-methylthiazol-5-yl)oxy)-3-fluorophenyl)-4-(2,6-difluorobenzyl)-2,4-dihydro-3H-1,2,4-triazol-3-one]",< 100 nM
7,"CC1C(C#N)CN1c1nccc(Oc2ccc(-n3ncn(Cc4c(F)cccc4F)c3=O)cc2)c1F (stereo not shown) [Example 357, 1-(4-(4-(4-(2,6-difluorobenzyl)-5-oxo-4,5-dihydro-1H-1,2,4-triazol-1-yl)phenoxy)-3-fluoropyridin-2-yl)-2-methylazetidine-3-carbonitrile]",< 100 nM
8,"CCOC1CN(c2cc(Oc3ccc(-n4ncn(Cc5c(F)cccc5F)c4=O)cc3F)c(C)cn2)C1 [Example 370, 4-(2,6-difluorobenzyl)-2-(4-((2-(3-ethoxyazetidin-1-yl)-5-methylpyridin-4-yl)oxy)-3-fluorophenyl)-2,4-dihydro-3H-1,2,4-triazol-3-one]",< 100 nM
9,"CCOC1CN(c2cc(Oc3ccc(-n4ncn(Cc5c(F)cccc5F)c4=O)cc3)c(F)cn2)C1 [Example 324, 4-(2,6-difluorobenzyl)-2-(4-((2-(3-ethoxyazetidin-1-yl)-5-fluoropyridin-4-yl)oxy)phenyl)-2,4-dihydro-3H-1,2,4-triazol-3-one]",< 100 nM

# Same assay, conditions: Homo sapiens; HT-29 cells stimulated with TNF-α (10 ng/ml), SMAC mimetic (6 μM) and zVAD-FMK (10 μM); 20 hours; CellTiter-Glo ATP luminescence; geometric mean IC50 from 10 points; read-out: Activity
row,Compound,IC50
1,"Cc1nc(N2C[C@@H](C#N)[C@@H]2C)sc1Oc1ccc(-n2ncn(Cc3c(F)cccc3F)c2=O)cc1 [Example 43, (2S,3R)-1-(5-(4-(4-(2,6-difluorobenzyl)-5-oxo-4,5-dihydro-1H-1,2,4-triazol-1-yl)phenoxy)-4-methylthiazol-2-yl)-2-methylazetidine-3-carbonitrile]",< 100 nM
2,"Cc1nc(C(N)=O)n(C)c1Oc1ccc(-n2nc3n(c2=O)[C@H](c2ccccc2)CC3)cc1F (single isomer, unassigned) [Example 693]",< 100 nM
3,"COC(=O)c1nc(C)c(Oc2ccc(-n3ncn(Cc4cc(F)ccc4F)c3=O)cc2F)s1 [Example 108, methyl 5-(4-(4-(2,5-difluorobenzyl)-5-oxo-4,5-dihydro-1H-1,2,4-triazol-1-yl)-2-fluorophenoxy)-4-methylthiazole-2-carboxylate]",< 100 nM
4,"Cc1nc(C(N)=O)cn1Cc1ccc(-n2nc3n(c2=O)C(c2ccccc2)CC3)cc1F (stereo not shown) [Example 102, 1-(2-fluoro-4-(3-oxo-5-phenyl-6,7-dihydro-3H-pyrrolo[2,1-c][1,2,4]triazol-2(5H)-yl)benzyl)-2-methyl-1H-imidazole-4-carboxamide]",< 100 nM
5,"Cc1nc(N2CC([C@H](C)O)C2)sc1Oc1ccc(-n2ncn(Cc3c(F)cccc3F)c2=O)cc1 [Example 52, (S)-4-(2,6-difluorobenzyl)-2-(4-((2-(3-(1-hydroxyethyl)azetidin-1-yl)-4-methylthiazol-5-yl)oxy)phenyl)-2,4-dihydro-3H-1,2,4-triazol-3-one]",< 100 nM
6,"Cc1nc(N2CC(OC3CC3)C2)sc1Oc1ccc(-n2ncn(Cc3c(F)cccc3F)c2=O)cc1 [Example 47, 2-(4-((2-(3-cyclopropoxyazetidin-1-yl)-4-methylthiazol-5-yl)oxy)phenyl)-4-(2,6-difluorobenzyl)-2,4-dihydro-3H-1,2,4-triazol-3-one]",< 100 nM
7,"COC(=O)c1nc(C)c(Oc2ccc(-n3nc4n(c3=O)[C@@H](c3ccccc3)CC4)cc2F)s1 (single isomer, unassigned) [Example 35]",1000 to 10000 nM
8,"N#Cc1ncc(Oc2ccc(-n3ncn(Cc4c(F)cccc4F)c3=O)cc2)s1 [Example 79, 5-(4-(4-(2,6-difluorobenzyl)-5-oxo-4,5-dihydro-1H-1,2,4-triazol-1-yl)phenoxy)thiazole-2-carbonitrile]",< 100 nM

# Reference: patent US20250179061A1 (SIRONAX LTD., priority 2022, published 2025)
